Laboratory results taken from ChEMBL document CHEMBL4152255, “Functionalized spirooxindole-indolizine hybrids: Stereoselective green synthesis and evaluation of anti-inflammatory effect involving TNF-α and nitrite inhibition” (2018).

Assays:
Type in all cases: functional
[1] = test system: Rattus norvegicus; experiment: Anti-inflammatory activity against carrageenan-induced paw oedema in Wistar albino rat assessed as reduction in TNFalpha level at 50 mg/kg, po pretreated for 1 hr followed by carrageenan challenge by ELISA relative to control; parameters: scale not given: the % may be the effect or the level left
[2] = test system: Rattus norvegicus; experiment: Anti-inflammatory activity against carrageenan-induced paw oedema in Wistar albino rat assessed as reduction in hind paw thickness at 50 mg/kg, po pretreated for 1 hr followed by carrageenan challenge measured after 5 hrs by caliper method relative to control; parameters: scale not given: the % may be the effect or the level left
[3] = test system: Rattus norvegicus; experiment: Anti-inflammatory activity against carrageenan-induced paw oedema in Wistar albino rat assessed as hind paw thickness at 50 mg/kg, po pretreated for 1 hr followed by carrageenan challenge measured after 3 hrs by caliper method (reference value: 8.45 +/- 0.64 millimeter)
[4] = test system: Rattus norvegicus; experiment: Anti-inflammatory activity against carrageenan-induced paw oedema in Wistar albino rat assessed as hind paw thickness at 50 mg/kg, po pretreated for 1 hr followed by carrageenan challenge measured immediately by caliper method (reference value: 3.58 +/- 0.34 millimeter)
[5] = test system: Mus musculus; experiment: Antiinflammatory activity in mouse assessed as inhibition of croton oil-induced ear edema at 1 mg/ear administered topically pretreated for 1 hr followed by croton oil addition and measured after 4 hrs relative to control; parameters: scale not given: the % may be the effect or the level left
[6] = test system: Rattus norvegicus; experiment: Anti-inflammatory activity against carrageenan-induced paw oedema in Wistar albino rat assessed as reduction in hind paw thickness at 50 mg/kg, po pretreated for 1 hr followed by carrageenan challenge measured after 3 hrs by caliper method relative to control; parameters: scale not given: the % may be the effect or the level left
[7] = test system: Rattus norvegicus; experiment: Anti-inflammatory activity in Wistar albino rat assessed as inhibition of cotton pellet-induced granuloma at 50 mg/kg administered once daily for 7 days measured on day 8 relative to control; parameters: scale not given: the % may be the effect or the level left
[8] = test system: Rattus norvegicus; experiment: Anti-inflammatory activity against carrageenan-induced paw oedema in Wistar albino rat assessed as hind paw thickness at 50 mg/kg, po pretreated for 1 hr followed by carrageenan challenge measured after 5 hrs by caliper method (reference value: 8.37 +/- 0.64 millimeter)
[9] = test system: Rattus norvegicus; experiment: Anti-inflammatory activity against carrageenan-induced paw oedema in Wistar albino rat assessed as reduction in nitrite level at 50 mg/kg, po pretreated for 1 hr followed by carrageenan challenge by Griess assay relative to control; parameters: scale not given: the % may be the effect or the level left
[10] = test system: Rattus norvegicus; experiment: Anti-inflammatory activity against carrageenan-induced paw oedema in Wistar albino rat assessed as reduction in PGE2 level at 50 mg/kg, po pretreated for 1 hr followed by carrageenan challenge by ELISA relative to control; parameters: scale not given: the % may be the effect or the level left
[11] = test system: Rattus norvegicus; experiment: Anti-inflammatory activity in Wistar albino rat assessed as inhibition of cotton pellet-induced granuloma at 10 mg/kg administered once daily for 7 days measured on day 8 relative to control; parameters: scale not given: the % may be the effect or the level left
[12] = test system: Rattus norvegicus; experiment: Anti-inflammatory activity against carrageenan-induced paw oedema in Wistar albino rat assessed as reduction in nitrite level at 10 mg/kg, po pretreated for 1 hr followed by carrageenan challenge by Griess assay relative to control; parameters: scale not given: the % may be the effect or the level left
[13] = test system: Rattus norvegicus; experiment: Anti-inflammatory activity against carrageenan-induced paw oedema in Wistar albino rat assessed as hind paw thickness at 10 mg/kg, po pretreated for 1 hr followed by carrageenan challenge measured after 5 hrs by caliper method (reference value: 8.37 +/- 0.64 millimeter)
[14] = test system: Rattus norvegicus; experiment: Anti-inflammatory activity against carrageenan-induced paw oedema in Wistar albino rat assessed as reduction in PGE2 level at 10 mg/kg, po pretreated for 1 hr followed by carrageenan challenge by ELISA relative to control; parameters: scale not given: the % may be the effect or the level left
[15] = test system: Rattus norvegicus; experiment: Anti-inflammatory activity against carrageenan-induced paw oedema in Wistar albino rat assessed as hind paw thickness at 10 mg/kg, po pretreated for 1 hr followed by carrageenan challenge measured after 3 hrs by caliper method (reference value: 8.45 +/- 0.64 millimeter)
[16] = test system: Rattus norvegicus; experiment: Anti-inflammatory activity against carrageenan-induced paw oedema in Wistar albino rat assessed as reduction in TNFalpha level at 10 mg/kg, po pretreated for 1 hr followed by carrageenan challenge by ELISA relative to control; parameters: scale not given: the % may be the effect or the level left
[17] = test system: Rattus norvegicus; experiment: Anti-inflammatory activity against carrageenan-induced paw oedema in Wistar albino rat assessed as hind paw thickness at 10 mg/kg, po pretreated for 1 hr followed by carrageenan challenge measured immediately by caliper method (reference value: 3.58 +/- 0.34 millimeter)
[18] = test system: Mus musculus; experiment: Antiinflammatory activity in mouse assessed as inhibition of croton oil-induced ear edema at 0.5 mg/ear administered topically pretreated for 1 hr followed by croton oil addition and measured after 4 hrs relative to control; parameters: scale not given: the % may be the effect or the level left

| SMILES | Activity [3] [mm] | Activity [4] [mm] | Activity [8] [mm] | other results |
| --- | --- | --- | --- | --- |
| COc1ccc(/C=C2\CNCC3(C2=O)[C@@H](c2ccc(OC)cc2)[C@@H]2CCCCN2[C@@]32C(=O)Nc3ccccc32)cc1 (some centres undefined) | 3.75 | 3.58 | 3.72 | Activity [1]: 38.52%; Activity [2]: 55.54%; Activity [5]: 48.32 - 49.02%; Activity [6]: 55.61%; Activity [7]: 32.48 - 37.21%; Activity [9]: 41.22%; Activity [10]: 34.1% |
| O=C1/C(=C/c2ccc(Cl)cc2Cl)CNCC12[C@@H](c1ccc(Cl)cc1Cl)[C@@H]1CCCCN1[C@@]21C(=O)Nc2ccccc21 (some centres undefined) | 7.12 | 3.59 | 6.5 |  |
| O=C1/C(=C/c2ccccc2F)CNCC12[C@@H](c1ccccc1F)[C@@H]1CCCCN1[C@@]21C(=O)Nc2ccccc21 (some centres undefined) | 6.53 | 3.61 | 6.13 |  |
| O=C1/C(=C/c2ccc(Br)cc2)CNCC12[C@@H](c1ccc(Br)cc1)[C@@H]1CCCCN1[C@@]21C(=O)Nc2ccccc21 (some centres undefined) | 7.62 | 3.58 | 7.7 |  |
| Cc1cccc(/C=C2\CNCC3(C2=O)[C@@H](c2cccc(C)c2)[C@@H]2CCCCN2[C@@]32C(=O)Nc3ccccc32)c1 (some centres undefined) | 8.16 | 3.58 | 7.82 |  |
| COc1cccc(/C=C2\CNCC3(C2=O)[C@@H](c2cccc(OC)c2)[C@@H]2CCCCN2[C@@]32C(=O)Nc3ccccc32)c1 (some centres undefined) | 8.1 | 3.61 | 7.62 |  |
| O=C1/C(=C/c2ccccc2Cl)CNCC12[C@@H](c1ccccc1Cl)[C@@H]1CCCCN1[C@@]21C(=O)Nc2ccccc21 (some centres undefined) | 6.54 | 3.59 | 7.18 |  |
| Cc1ccccc1/C=C1\CNCC2(C1=O)[C@@H](c1ccccc1C)[C@@H]1CCCCN1[C@@]21C(=O)Nc2ccccc21 (some centres undefined) | 7.5 | 3.63 | 7.41 |  |
| COc1ccc2c(c1)c(CC(=O)O)c(C)n2C(=O)c1ccc(Cl)cc1 [INDOMETHACIN] |  |  |  | Activity [11]: 39.7%; Activity [12]: 41.64%; Activity [13]: 3.83 mm; Activity [14]: 33.88%; Activity [15]: 3.86 mm; Activity [16]: 37.13%; Activity [17]: 3.61 mm; Activity [18]: 53.56% |
| O=C1/C(=C/c2ccccc2Br)CNCC12[C@@H](c1ccccc1Br)[C@@H]1CCCCN1[C@@]21C(=O)Nc2ccccc21 (some centres undefined) | 7 | 3.54 | 6.2 |  |
| Cc1ccc(/C=C2\CNCC3(C2=O)[C@@H](c2ccc(C)cc2)[C@@H]2CCCCN2[C@@]32C(=O)Nc3ccccc32)cc1 (some centres undefined) | 3.87 | 3.55 | 3.74 | Activity [1]: 36.23%; Activity [2]: 55.3%; Activity [5]: 47.53 - 54.53%; Activity [6]: 54.07%; Activity [7]: 24.17 - 33.23%; Activity [9]: 42.99%; Activity [10]: 35.23% |
| O=C1/C(=C/c2ccc(Cl)cc2)CNCC12[C@@H](c1ccc(Cl)cc1)[C@@H]1CCCCN1[C@@]21C(=O)Nc2ccccc21 (some centres undefined) | 8.16 | 3.62 | 8 |  |
| O=C1/C(=C/c2ccc(F)cc2)CNCC12[C@@H](c1ccc(F)cc1)[C@@H]1CCCCN1[C@@]21C(=O)Nc2ccccc21 (some centres undefined) | 7.18 | 3.62 | 6.9 |  |
| COc1ccccc1/C=C1\CNCC2(C1=O)[C@@H](c1ccccc1OC)[C@@H]1CCCCN1[C@@]21C(=O)Nc2ccccc21 (some centres undefined) | 6.31 | 3.67 | 7 |  |
| O=C1/C(=C/c2ccccc2)CNCC12[C@@H](c1ccccc1)[C@@H]1CCCCN1[C@@]21C(=O)Nc2ccccc21 (some centres undefined) | 7.21 | 3.61 | 6.98 |  |
